Measurements as given in patent US8236984B2, “Compound and use thereof in the treatment of amyloidosis” (Pentraxin Therapeutics Ltd., priority 2007, dated 2012).
“Also recorded” adds a separate entry of the source.

Tests used:
transthyretin = biological target: T1, transthyretin (Homo sapiens, UniProt P02766); assay: Stopped flow analysis of the kinetics of binding by transthyretin; details: 2 μM protein, 10 μM ligand, PBS pH 7.4, 5% DMSO, 20° C.
T1 construct: Native tetrameric transthyretin was purified from fractionated human plasma; from tissue; host or cells: human plasma
Procedure: 3.2.2 Stopped flow analysis of the kinetics of 4ajm15 binding by transthyretin. The kinetics of transthyretin binding to 4ajm15 were evaluated with a Bio-Logic SFM-300 stopped flow device coupled to a fluorescence detection system (Claix, France) using a cell path length of 1.5 mm. The excitation wavelength was 280 nm and emission was measured at wavelengths greater than 320 nm using a cut off filter. The experiments were performed at 20° C. in PBS pH 7.4 containing 5% DMSO with a final protein concentration of 2 μM in the presence of 10 μM 4ajm15. The kinetic traces fit well to a single-exponential function with a time constant of 2.17 s (±0.02 s). Transthyretin thus binds 4ajm15 very rapidly at physiological pH with the plateau of the quenching reaction being reached after only ˜11 sec.

[1] = biological target: T2, thyroxine binding globulin (TBG) (Homo sapiens, UniProt P05543); assay: T4 displacement from T4 binding proteins in whole serum (agarose gel electrophoresis, densitometry); details: increasing concentrations of ligand
T2 construct: from tissue; host or cells: whole serum
T2 sequence (P05543 21-415): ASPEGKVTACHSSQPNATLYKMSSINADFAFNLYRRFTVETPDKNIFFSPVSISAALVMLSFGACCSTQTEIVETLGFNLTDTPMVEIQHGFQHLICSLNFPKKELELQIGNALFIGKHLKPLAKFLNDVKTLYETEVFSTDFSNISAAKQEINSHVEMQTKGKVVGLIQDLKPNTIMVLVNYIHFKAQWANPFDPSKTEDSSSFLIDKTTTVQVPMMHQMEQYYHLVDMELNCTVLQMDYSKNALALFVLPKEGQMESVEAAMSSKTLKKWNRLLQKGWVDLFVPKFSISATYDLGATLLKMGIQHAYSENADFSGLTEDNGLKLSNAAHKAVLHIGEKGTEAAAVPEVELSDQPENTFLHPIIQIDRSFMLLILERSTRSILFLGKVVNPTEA
Text: 3.2.3.3. […] After the electrophoresis, the proteins were transferred by capillary diffusion to a nitrocellulose membrane and subjected to phosphor imaging (Typhoon 8600; […], Amersham Biosciences). The two known T4-binding proteins, transthyretin and thyroxine binding globulin (TBG), were distinctly visualized, while albumin binding appears as a radioactive smear between them.

[2] = Solubility as noted for calorimetry; assay type: physicochemical; details: in words, reason ITC could not be performed
V30M transthyretin = biological target: T3, V30M transthyretin (Homo sapiens, UniProt P02766, V50M); assay: Mass spectrometric analysis of subunit exchange; assay type: biochemical; details: 2-fold molar excess of ligand, data not shown
T3 construct: made in house
Procedure: 4.2 Mass spectrometric analysis of subunit exchange. Recombinant wild type, L55P and V30M transthyretin variants were biosynthetically labelled with isotopes [^15N] and [^15N, ^13C] as previously described (Keetch C A et al, 2005). Immediately prior to analysis, proteins were buffer exchanged into 20 mM ammonium acetate, pH 7.0 using Micro Biospin columns (Bio-Rad, UK). The subunit composition of transthyretin was monitored as a function of time by incubating an equimolar solution (4.4 μM) of [^15N] and [^15N, ^13C] labelled proteins in the presence of 2-fold molar excess of 4ajm15 in DMSO or 2.5% DMSO alone as a control. Each experiment was carried out in triplicate at room temperature and at 4° C. as well, since it is known that subunit exchange is accelerated at low temperatures. Nanoflow ESMS was performed on a QToF2 instrument (Waters/Micromass UK, Ltd.) modified for high mass operation (Sobott et al, (2002)) and calibrated externally using caesium iodide (100 mg/ml). Each solution, 1.5 μl, was electrosprayed from gold coated borosilicate capillaries prepared in-house as described (Nettleton E J, et al, 1998). […]

[3] = biological target: L55P variant transthyretin (Homo sapiens, UniProt P02766, L75P); assay: Differential scanning calorimetry of transthyretin with ligand; assay type: binding; details: five fold molar excess of ligand

Compound	time constant of binding (single-exponential fit) (transthyretin)	time to plateau of the quenching reaction (transthyretin)	effect on binding of T4 by TBG [1]	solubility [2]	subunit exchange of V30M transthyretin (V30M transthyretin)	Tm of L55P variant transthyretin with the ligand [3]	increase in Tm of L55P variant transthyretin [3]
O=C(O)c1ccccc1Nc1cc(Cl)c(OCCCCCCCCCCCOc2c(Cl)cc(Nc3ccccc3C(=O)O)cc2Cl)c(Cl)c1 [4ajm15, 2,2′-(4,4′-(undecane-1,11-diylbis(oxy))bis(3,5-dichloro-4,1-phenylene))bis(azanediyl)dibenzoic acid]	2.17 s	~11 s	did not affect	limited solubility; also recorded: too insoluble	Exactly the same effect	–	–
O=C(O)c1ccccc1Nc1cc(Cl)c(OCCCCCCCOc2c(Cl)cc(Nc3ccccc3C(=O)O)cc2Cl)c(Cl)c1 [mds84, 2,2′-(4,4′-(heptane-1,7-diylbis(oxy))bis(3,5-dichloro-4,1-phenylene))bis(azanediyl)dibenzoic acid]	–	–	–	–	–	98.3 °C	5.9 °C
